In brackets after ≈: the same amount, converted by molar mass. Like-named read-outs stand apart in the source and are kept apart here. Each block holds one compound with its values, some of them ahead of it.
Legend:
Alternaria tenuis = assay: minimum inhibitory concentration against fungi (agar); type: cell-based; details: Alternaria alternata, 336 h
Protocol: (§1) An agar prepared from beer wort and peptone is mixed with the substance according to the invention at concentrations from 0.5 mg/l to 5,000 mg/l.
(§2) After storage for 2 weeks at 28° C. and 60 to 70% relative atmospheric humidity, the MIC is determined. The MIC is the lowest concentration of active agent with which no growth by the type of microbe used ensues; it is given in the table below.

Aspergillus niger = assay: as above; type: cell-based; details: 336 h
Protocol: as §1, §2

Cladosporium herbarum = assay: as above; type: cell-based; details: 336 h
Protocol: as §1, §2

Coniophora cerebella = assay: as above; type: cell-based; details: 336 h
Protocol: as §1, §2

Paecilomyces varioti = assay: as above; type: cell-based; details: 336 h
Protocol: as §1, §2

Penicillium citrinum = assay: as above; type: cell-based; details: 336 h
Protocol: as §1, §2

Penicillium glaucum = assay: as above; type: cell-based; details: 336 h
Protocol: as §1, §2

Pullularia pullulans = assay: as above; type: cell-based; details: 336 h
Protocol: as §1, §2

Stachybotris atra C. = assay: as above; type: cell-based; details: 336 h
Protocol: as §1, §2

Trichoderma viride = assay: as above; type: cell-based; details: 336 h
Protocol: as §1, §2

Escherichia coli = assay: action against bacteria, MIC (bouillon agar); type: cell-based; details: 336 h
Protocol: An agar, containing bouillon as a nutrient medium, is treated with the active agents A and B (Example 2) given in Table II at concentrations from 1 to 5,000 ppm. The nutrient medium is then inoculated with either Escherichia coli or Staphylococcus aureus and the inoculated medium is maintained for 2 weeks at 28° C. and 60 to 70% relative atmospheric humidity. The MIC is the lowest concentration of active agent with which no growth by the type of microbe used ensues.

[1] = solubility of substance A compared to substance B; type: physicochemical
Protocol: Solubility of substance A compared to substance B (g/l at 20° C.): […]

[2] = beer wort/peptone agar, 2 weeks at 28° C., 60 to 70% relative humidity, read-out: MIC

MIC (Alternaria tenuis; Alternaria tenuis, beer wort/peptone agar, 2 weeks at 28° C., 60 to 70% relative humidity, read-out: MIC): 10 µg/mL (≈ 0.0338 mM)
MIC (Aspergillus niger; [2]): 200 µg/mL (≈ 0.675 mM)
MIC (Cladosporium herbarum; [2]): 7 µg/mL (≈ 0.0236 mM)
MIC (Coniophora cerebella; [2]): < 1 µg/mL
MIC (Paecilomyces varioti; Paecilomyces varioti, beer wort/peptone agar, 2 weeks at 28° C., 60 to 70% relative humidity, read-out: MIC): 10 µg/mL (≈ 0.0338 mM)
MIC (Penicillium citrinum; [2]): 7 µg/mL (≈ 0.0236 mM)
MIC (Penicillium glaucum; Penicillium glaucum, beer wort/peptone agar, 2 weeks at 28° C., 60 to 70% relative humidity, read-out: MIC): 10 µg/mL (≈ 0.0338 mM)
MIC (Pullularia pullulans; Pullularia pullulans, beer wort/peptone agar, 2 weeks at 28° C., 60 to 70% relative humidity, read-out: MIC): 5 µg/mL (≈ 0.0169 mM)
MIC (Stachybotris atra C.; Stachybotris atra C., beer wort/peptone agar, 2 weeks at 28° C., 60 to 70% relative humidity, read-out: MIC): 15 µg/mL (≈ 0.0507 mM)
MIC (Trichoderma viride; [2]): 200 µg/mL (≈ 0.675 mM)
MIC (Escherichia coli; bouillon agar, 2 weeks at 28° C., 60 to 70% relative humidity, read-out: MIC): 200 µg/mL (≈ 0.675 mM)
Solubility ([1]; Ethyl acetate, 20° C.): 330 mg/mL (≈ 1110 mM)
Solubility ([1]; Shellsol AB, 20° C.): 140 mg/mL (≈ 473 mM)
Solubility ([1]; Solvesso 100, 20° C.): 200 mg/mL (≈ 675 mM)
Solubility ([1]; Xylene, 20° C.): 250 mg/mL (≈ 844 mM)
solubility properties (in words) ([1]; particularly when compared to substance B): very good solubility properties
Compound: O=C1C2C3C=CC(C3)C2C(=O)N1SC(F)(Cl)Cl (stereo not shown) [A]

Compound: CN(C)S(=O)(=O)N(SC(F)(Cl)Cl)c1ccccc1 [B]
MIC (Alternaria tenuis): 20 µg/mL (≈ 0.06 mM)
MIC (Aspergillus niger): 50 µg/mL (≈ 0.15 mM)
MIC (Cladosporium herbarum): 35 µg/mL (≈ 0.105 mM)
MIC (Coniophora cerebella): 10 µg/mL (≈ 0.03 mM)
MIC (Paecilomyces varioti; Paecilomyces): 20 µg/mL (≈ 0.06 mM)
MIC (Penicillium citrinum): 150 µg/mL (≈ 0.45 mM)
MIC (Penicillium glaucum; Penicillium): 35 µg/mL (≈ 0.105 mM)
MIC (Pullularia pullulans): 20 µg/mL (≈ 0.06 mM)
MIC (Stachybotris atra C.): 50 µg/mL (≈ 0.15 mM)
MIC (Trichoderma viride): 5000 µg/mL (≈ 15 mM)
MIC (Escherichia coli): 500 µg/mL (≈ 1.5 mM)
Solubility ([1]; Ethyl acetate, 20° C.): 117 mg/mL (≈ 351 mM)
Solubility ([1]; Shellsol AB, 20° C.): 60 mg/mL (≈ 180 mM)
Solubility ([1]; Solvesso 100, 20° C.): 75 mg/mL (≈ 225 mM)
Solubility ([1]; Xylene, 20° C.): 65 mg/mL (≈ 195 mM)
